From patent US12016858B2, “Methods for the treatment of abnormal involuntary movement disorders” (AUSPEX PHARMACEUTICALS, INC., priority 2015, dated 2024)

Test system: subjects with manifest HD, chorea
Test: ARC-HD open-label, single-arm study (Rollover and Switch cohorts)
Format: in vivo, human
Description: In a second clinical trial, a method for converting patients with adequate control of chorea with tetrabenazine to deutetrabenazine treatment was implemented. Alternatives for Reducing Chorea in Huntington Disease (ARC-HD) was an open-label, single-arm study in which subjects with manifest HD who were receiving FDA-approved doses of tetrabenazine for the treatment of chorea or had successfully completed First-HD were invited to participate. The study thus comprised two cohorts. […] Other key inclusion criteria for the study included: diagnosed with manifest HD, as indicated by characteristic motor examination features; a documented expanded cytosine adenine guanine (CAG) repeat (≥37) and Total Functional Capacity (TFC) score ≥5 at or before Screening; able to ambulate without assistance for at least 20 yards ([…] devices such as walker or cane permitted); and subject has a reliable caregiver who interacts with the subject on a daily basis, oversees study drug administration, assures attendance at study visits, and participates in evaluations, as required. Key exclusion criteria included serious untreated or undertreated psychiatric illness (e.g., depression) at Screening or Baseline; concomitant dopamine receptor antagonists, dopamine agonists, levodopa, reserpine, N-methyl-D-aspartate receptor antagonists, or monoamine oxidase inhibitors within 30 days of Screening or Baseline; and score ≥11 on the depression subscale of the Hospital Anxiety and Depression Scale (HADS), a score of ≥11 on the Swallowing Disturbance Questionnaire (SDQ), or a Unified Parkinson's Disease Rating Scale (UPDRS) dysarthria score of ≥3 at Screening or Baseline. The guidance for investigators on conversion of subjects from stable doses of tetrabenazine to deutetrabenazine in the ARC-HD Switch study was designed to minimize the risk that dose conversion would result in either loss of efficacy or increased adverse events. The conversion method applied was based on modeling and simulation of Phase 1 pharmacokinetic data for deutetrabenazine and tetrabenazine. The objective of the pharmacokinetic analysis was to identify an initial dosing regimen of deutetrabenazine predicted to provide exposure at steady state of the active α and β metabolites that was less than or equal to the predicted AUC at steady state of the active alpha and beta metabolites of tetrabenazine, but with a lower Cmax. Subjects in the Switch cohort completed a full screening evaluation. […] Subjects received existing tetrabenazine regimen through midnight of Day 0 and switched to their assigned deutetrabenazine regimen the next morning (Day 1 of the study). […] The investigator, in consultation with the subject and caregiver, determined when an adequate level of chorea control had been achieved. If a subject experienced a “clinically significant” adverse event attributable to deutetrabenazine, the investigator determined if a dose reduction or suspension was necessary. […] The deutetrabenazine dose for these subjects was titrated from a starting dose of 6 mg per day to a dose that controlled chorea and was well tolerated. For both cohorts, oral tablets at strengths of 6 mg, 9 mg, and 12 mg were used. Doses of 12 mg and higher were administered in two divided doses approximately 10 hours apart. All study treatment regimens were administered orally with meals. The maximum total daily dose of deutetrabenazine was set at 72 mg per day, unless the subject was receiving a strong CYP2D6 inhibitor (e.g., paroxetine), in which case the maximum total daily dose was 36 mg. Subjects attended regular clinic visits to evaluate safety and establish an optimal dose. The investigator, in consultation with the subject and caregiver, determined when an adequate level of chorea control was achieved; the dose of DTBZ could be increased on a weekly basis until there was adequate control of chorea, the subject experienced a protocol defined clinically significant adverse event, or the maximal allowable dose was reached. […]

[2H]C([2H])([2H])Oc1cc2c(cc1OC([2H])([2H])[2H])C1CC(=O)C(CC(C)C)CN1CC2 (stereo not drawn) [deutetrabenazine, (RR, SS)-1,3,4,6,7,11b-hexahydro-9,10-di(methoxy-d3)-3-(2-methylpropyl)-2H-benzo[a]quinolizin-2-one]
subjects who experienced AEs (Rollover Cohort): 39 (52.0%) n (%) | subjects who experienced serious AEs (Rollover Cohort): Three | subjects with an AE that led to a dose reduction or dose suspension (Rollover Cohort): Five | TEAE Anxiety (Rollover Cohort (N = 75)): 3 (4.0) n (%) | TEAE Constipation (Rollover Cohort (N = 75)): 3 (4.0) n (%) | TEAE Depression (Rollover Cohort (N = 75)): 8 (10.7) n (%) | TEAE Diarrhoea (Rollover Cohort (N = 75)): 4 (5.3) n (%) | TEAE Disorientation (Rollover Cohort (N = 75)): 0 n (%) | TEAE Dry mouth (Rollover Cohort (N = 75)): 3 (4.0) n (%) | TEAE Fall (Rollover Cohort (N = 75)): 10 (13.3) n (%) | TEAE Fatigue (Rollover Cohort (N = 75)): 3 (4.0) n (%) | TEAE Insomnia (Rollover Cohort (N = 75)): 6 (8.0) n (%) | TEAE Irritability (Rollover Cohort (N = 75)): 3 (4.0) n (%) | TEAE Nasopharyngitis (Rollover Cohort (N = 75)): 2 (2.7) n (%) | TEAE Sleep disorder (Rollover Cohort (N = 75)): 3 (4.0) n (%) | TEAE Somnolence (Rollover Cohort (N = 75)): 6 (8.0) n (%) | TEAE Vomiting (Rollover Cohort (N = 75)): 3 (4.0) n (%) | subjects who experienced AEs (Rollover Cohort, Day 1 through Week 8): 45.3% | TMC mean (SD) decrease from baseline (Rollover Cohort, Week 2): 1.9 (3.0) units | Total Maximal Chorea Score, Mean (SD) Change from Baseline (Rollover Cohort, Week 2): −1.9 (2.95) | Total Maximal Chorea Score, Mean (SD) Score (Rollover Cohort, Week 2): 10.1 (3.41) | Total Motor Score, Mean (SD) Change from Baseline (Rollover Cohort, Week 2): −3.9 (6.67) | Total Motor Score, Mean (SD) Score (Rollover Cohort, Week 2): 32.4 (15.23) | mean decrease in TMS from baseline (Rollover Cohort, Week 2): 3.9 units | Total Maximal Chorea Score, Mean (SD) Change from Baseline (Rollover Cohort, Week 4): −2.5 (3.21) | Total Maximal Chorea Score, Mean (SD) Score (Rollover Cohort, Week 4): 9.8 (3.69) | Total Motor Score, Mean (SD) Change from Baseline (Rollover Cohort, Week 4): −5.9 (7.88) | Total Motor Score, Mean (SD) Score (Rollover Cohort, Week 4): 32.1 (16.84) | Total Maximal Chorea Score, Mean (SD) Change from Baseline (Rollover Cohort, Week 8): −4.5 (3.34) | Total Maximal Chorea Score, Mean (SD) Score (Rollover Cohort, Week 8): 7.9 (3.91) | Total Motor Score, Mean (SD) Change from Baseline (Rollover Cohort, Week 8): −8.3 (8.58) | Total Motor Score, Mean (SD) Score (Rollover Cohort, Week 8): 31.0 (18.07) | subjects who experienced AEs (Rollover Cohort, Week 8 through the visit cut-off date): 43.2% | TMC mean (SD) decrease from baseline (Rollover Cohort, Week 15): 4.5 (5.0) units | Total Maximal Chorea Score, Mean (SD) Score (Rollover Cohort, Week 15): 7.9 (4.05) | Total Motor Score, Mean (SD) Change from Baseline (Rollover Cohort, Week 15): −8.0 (8.41) | Total Motor Score, Mean (SD) Score (Rollover Cohort, Week 15): 30.5 (17.70) | mean decrease in TMS from baseline (Rollover Cohort, Week 15): 8.0 units | Total Motor Score, Mean (SD) Change from Baseline (Rollover Cohort, Week 15, listed as DTBZ): −8.0 | subjects with AEs assessed as mild or moderate in intensity (Rollover Cohort, of the 39 subjects with AEs): 36 (92.3%) n (%) | tolerability (Rollover and Switch Cohorts): generally well tolerated | subjects who experienced at least one AE (Switch Cohort): 21 (56.8%) n (%) | subjects who experienced serious AEs (Switch Cohort): Two | subjects with an AE that led to a dose reduction or dose suspension (Switch Cohort): four | withdrawal from the study due to an AE (Switch Cohort): no subjects withdrew | TEAE Anxiety (Switch Cohort (N = 37)): 3 (8.1) n (%) | TEAE Constipation (Switch Cohort (N = 37)): 2 (5.4) n (%) | TEAE Diarrhoea (Switch Cohort (N = 37)): 2 (5.4) n (%) | TEAE Disorientation (Switch Cohort (N = 37)): 2 (5.4) n (%) | TEAE Dry mouth (Switch Cohort (N = 37)): 2 (5.4) n (%) | TEAE Fall (Switch Cohort (N = 37)): 3 (8.1) n (%) | TEAE Fatigue (Switch Cohort (N = 37)): 1 (2.7) n (%) | TEAE Insomnia (Switch Cohort (N = 37)): 1 (2.7) n (%) | TEAE Irritability (Switch Cohort (N = 37)): 2 (5.4) n (%) | TEAE Nasopharyngitis (Switch Cohort (N = 37)): 2 (5.4) n (%) | TEAE Sleep disorder (Switch Cohort (N = 37)): 0 n (%) | TEAE Somnolence (Switch Cohort (N = 37)): 9 (24.3) n (%) | TEAE Vomiting (Switch Cohort (N = 37)): 1 (2.7) n (%) | Total Maximal Chorea Score, Mean (SD) Score (Switch Cohort, Week 1): 11.76 (5.11) | Total Motor Score, Mean (SD) Change from Baseline (Switch Cohort, Week 1): −2.14 (5.414) | Total Motor Score, Mean (SD) Score (Switch Cohort, Week 1): 36.35 (18.043) | Total Maximal Chorea Score, Mean (SD) Score (Switch Cohort, Week 4): 11.86 (5.23) | Total Motor Score, Mean (SD) Change from Baseline (Switch Cohort, Week 4): −1.85 (8.419) | Total Motor Score, Mean (SD) Score (Switch Cohort, Week 4): 37.14 (19.516) | Total Maximal Chorea Score, Mean (SD) Change from Baseline (Switch Cohort, Week 8): −1.9 | Total Maximal Chorea Score, Mean (SD) Score (Switch Cohort, Week 8): 10.10 (5.56) | Total Motor Score, Mean (SD) Score (Switch Cohort, Week 8): 34.58 (18.268) | Total Motor Score, Mean (SD) Change from Baseline (Switch Cohort, Week 8, listed as DTBZ): −3.7 | Total Maximal Chorea Score, Mean (SD) Score (Switch Cohort, Week 15): 10.87 (5.99) | Total Motor Score, Mean (SD) Change from Baseline (Switch Cohort, Week 15): −1.93 (10.910) | Total Motor Score, Mean (SD) Score (Switch Cohort, Week 15): 35.00 (22.984) | adverse events of chorea or worsening chorea (Switch Cohort, including first week after conversion from tetrabenazine): no adverse events of chorea or worsening chorea | subjects with AEs assessed as mild to moderate in intensity (Switch Cohort, of the 21 subjects with AEs): 20 (95.2%) n (%) | mean change from baseline in swallowing disturbance (questionnaire) (patients switched from tetrabenazine to deutetrabenazine (FIG. 7)): trend toward improvement in swallowing | overall analysis of the safety scales (UHDRS, SDQ, UPDRS dysarthria, BARS, HADS, ESS, C-SSRS, MoCA) (through Week 28): no increased risk
